Test results from patent US4141989A, “Fungicidal 3-(N-chloroacetyl-N-arylamino)-gamma-butyrolactone compositions” (Chevron Research Company, priority 1977, dated 1979).

Key:
Bremia lactucae = test: Control of lettuce downy mildew (Example 13, Table VIII); format: in vivo
Plasmopara viticola [1] = test: Preventive grape downy mildew control, detached Emperor leaves (Example 5, Table I); format: in vivo; settings: 6.4 ppm, sprayed before inoculation
Plasmopora viticola = test: Control of foliar grape downy mildew infection by root absorption (Example 12, Table VII); format: in vivo; settings: 50% wettable powder, 50 ppm
Text: Three-month-old single-bud Cabernet Sauvignon cuttings (cultivated in gravel), containing 9 to 12 leaves, were used as hosts. […] The cuttings were then replanted in gravel and put into a misting chamber. At four different times after root treatment, the leaf undersides were sprayed with a sporangial suspension of Plasmopora viticola. The inoculated cuttings were placed into the misting chamber to stimulate disease development. Ten to 12 days after inoculation, the amount of disease control was determined. The percent disease control provided by the test compound was based on the percent disease reduction relative to untreated check cuttings.

Plasmopara viticola [2] = test: Preventive grape downy mildew control, detached Cabernet Sauvignon leaves (Example 7, Table II); format: in vivo
Oral LD50 (rats) = settings: rat, in vivo
[3] = tested on: Pseudoperonospora cubensis; test: Foliar spray control of cucumber downy mildew (Example 15, Table X); format: in vivo
[4] = tested on: yeasts responsible for the alcoholic fermentation of grapes; test: Fermentation test, grape juice (Example 8, Table III); format: cell-based
Phytophthora cryptogea = test: Snapdragon crown and root rot control, soil drench (Example 16, Table XI); format: in vivo; settings: soil drench, 100 ppm
[5] = tested on: Peronospora parasitica ssp. brassicae; test: Preventive control of cabbage downy mildew (Example 14, Table IX); format: in vivo
[6] = inoculated 1 day after root treatment
[7] = inoculated 5 days after root treatment

## Cc1cccc(C)c1N(C(=O)CCl)C1CCOC1=O (stereo not shown) [Compound A, 3-(N-chloroacetyl-N-2,6-dimethylphenylamino)-gamma-butyrolactone]
Bremia lactucae; 25 g active/hl
  % Control: 75.8%
  % Dead Seedlings: 5.9%
Bremia lactucae; 50 g active/hl
  % Control: 90.6%
  % Dead Seedlings: 1.1%
Bremia lactucae; 100 g active/hl
  % Control: 95.5%
  % Dead Seedlings: 2.3%
Plasmopara viticola [1]
  pest or weed control at 6.4 ppm: 97%
Plasmopora viticola; [6]
  % Disease Control: 33.5%
  % Leaf Surface Infected: 6.26%
Plasmopora viticola; [7]
  % Disease Control: 98%
  % Leaf Surface Infected: 0.32%
Plasmopara viticola [2]; 6.4 ppm
  Percent Control: 100%
Plasmopara viticola [2]; 16 ppm
  Percent Control: 100%
Plasmopara viticola [2]; 40 ppm
  Percent Control: 100%
Oral LD50 (rats)
  LD50: > 1000 mg/kg
[3]; 16 ppm
  % Control: 63%
[3]; 40 ppm
  % Control: 88%
[3]; 100 ppm
  % Control: 100%
[4]; 1 ppm, after 1 day
  Cumulative loss of weight due to CO2 escape: 0.9 grams
[4]; 1 ppm, after 2 days
  Cumulative loss of weight due to CO2 escape: 5.0 grams
[4]; 1 ppm, after 3 days
  Cumulative loss of weight due to CO2 escape: 10.5 grams
[4]; 1 ppm, after 4 days
  Cumulative loss of weight due to CO2 escape: 11.3 grams
[4]; 1 ppm, after 7 days
  Cumulative loss of weight due to CO2 escape: 14.2 grams
[4]; 1 ppm, after 8 days
  Cumulative loss of weight due to CO2 escape: 14.5 grams
[4]; 2 ppm, after 1 day
  Cumulative loss of weight due to CO2 escape: 0.8 grams
[4]; 2 ppm, after 2 days
  Cumulative loss of weight due to CO2 escape: 5.2 grams
[4]; 2 ppm, after 3 days
  Cumulative loss of weight due to CO2 escape: 10.4 grams
[4]; 2 ppm, after 4 days
  Cumulative loss of weight due to CO2 escape: 11.1 grams
[4]; 2 ppm, after 7 days
  Cumulative loss of weight due to CO2 escape: 13.4 grams
[4]; 2 ppm, after 8 days
  Cumulative loss of weight due to CO2 escape: 13.7 grams
[4]; 4 ppm, after 1 day
  Cumulative loss of weight due to CO2 escape: 1.0 grams
[4]; 4 ppm, after 2 days
  Cumulative loss of weight due to CO2 escape: 5.2 grams
[4]; 4 ppm, after 3 days
  Cumulative loss of weight due to CO2 escape: 10.4 grams
[4]; 4 ppm, after 4 days
  Cumulative loss of weight due to CO2 escape: 11.1 grams
[4]; 4 ppm, after 7 days
  Cumulative loss of weight due to CO2 escape: 13.1 grams
[4]; 4 ppm, after 8 days
  Cumulative loss of weight due to CO2 escape: 13.3 grams
[4]; 8 ppm, after 1 day
  Cumulative loss of weight due to CO2 escape: 1.0 grams
[4]; 8 ppm, after 2 days
  Cumulative loss of weight due to CO2 escape: 5.4 grams
[4]; 8 ppm, after 3 days
  Cumulative loss of weight due to CO2 escape: 11.0 grams
[4]; 8 ppm, after 4 days
  Cumulative loss of weight due to CO2 escape: 11.8 grams
[4]; 8 ppm, after 7 days
  Cumulative loss of weight due to CO2 escape: 14.5 grams
[4]; 8 ppm, after 8 days
  Cumulative loss of weight due to CO2 escape: 15.2 grams
Phytophthora cryptogea
  % Control: 100%
[5]; 20 g a.i./hl
  % Diseased Seedlings: 1.8%
[5]; 20 g a.i./hl, disease reduction relative to check flat
  % Control: 98.2%
[5]; 40 g a.i./hl
  % Diseased Seedlings: 2.2%
